Values of other authors, collected in patent publication US20100125067A1, “SULFONAMIDE INHIBITORS OF CARBONIC ANHYDRASE II” (AUSPEX PHARMACEUTICALS, INC., priority 2008, published 2010).

Legend:
carbonic anhydrase I = carbonic anhydrase I (Homo sapiens, UniProt P00915); conditions: as compared to the parent compound dorzolamide
carbonic anhydrase II = carbonic anhydrase II (Homo sapiens, UniProt P00918); conditions: as compared to the parent compound dorzolamide

Sequence of carbonic anhydrase I (P00915 whole entry, species assumed): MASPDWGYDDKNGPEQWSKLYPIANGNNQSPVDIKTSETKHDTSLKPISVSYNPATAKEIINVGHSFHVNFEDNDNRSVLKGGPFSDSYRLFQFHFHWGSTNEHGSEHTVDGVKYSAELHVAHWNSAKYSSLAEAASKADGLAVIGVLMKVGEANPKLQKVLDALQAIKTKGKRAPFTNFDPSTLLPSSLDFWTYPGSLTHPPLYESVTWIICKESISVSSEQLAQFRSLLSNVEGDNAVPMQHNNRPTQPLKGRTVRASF

potency as inhibitor of carbonic anhydrase I (carbonic anhydrase I): more potent inhibitor | potency as inhibitor of carbonic anhydrase II (carbonic anhydrase II): less potent inhibitor
Compound: CC1CC(N)c2cc(S(N)(=O)=O)sc2S1(=O)=O (centres unmarked) [N-de-ethylated metabolite]
